Test results published in paper PMC9942557, “Bolaamphiphile Analogues of 12-bis-THA Cl2 Are Potent Antimicrobial Therapeutics with Distinct Mechanisms of Action against Bacterial, Mycobacterial, and Fungal Pathogens” (mSphere, 2022).
≈ marks a conversion by molar mass, not a printed value. Where two headings read alike, the source gives them in different places.

Experiments:
P. aeruginosa PAO1 [1] = assay: Fixed-concentration (0.25× MIC bolalipid) synergy broth microdilution; format: cell-based, Pseudomonas aeruginosa; details: P. aeruginosa PAO1
P. aeruginosa NCTC 13437 = assay: as above; format: cell-based, Pseudomonas aeruginosa; details: P. aeruginosa NCTC 13437
C. albicans 3179 = assay: Broth microdilution MIC; format: cell-based, Candida albicans
C. albicans 3281 = assay: Broth microdilution MIC; format: cell-based, Candida albicans
C. auris temp probe = assay: Broth microdilution MIC; format: cell-based, Candida auris
C. glabrata 8018 = assay: Broth microdilution MIC; format: cell-based
C. tropicalis 8760 = assay: Broth microdilution MIC; format: cell-based
C. krusei 3876 = assay: Broth microdilution MIC; format: cell-based
C. parapsilosis 3209 = assay: Broth microdilution MIC; format: cell-based
C. parapsilosis = assay: Broth microdilution MIC; format: cell-based
[2] = system: Klebsiella pneumoniae NCTC 13368; assay: Broth microdilution MIC; format: cell-based
Klebsiella pneumoniae M6 = assay: Broth microdilution MIC; format: cell-based
[3] = system: Acinetobacter baumannii AYE; assay: Broth microdilution MIC; format: cell-based; details: Acinetobacter baumannii AYE
[4] = system: Acinetobacter baumannii ATCC 17978; assay: Broth microdilution MIC; format: cell-based
[5] = system: Pseudomonas aeruginosa PAO1; assay: Broth microdilution MIC; format: cell-based
[6] = system: Pseudomonas aeruginosa NCTC 13437; assay: Broth microdilution MIC; format: cell-based
[7] = system: Escherichia coli NCTC 12923; assay: Broth microdilution MIC; format: cell-based
[8] = system: EMR Staphylococcus aureus 15 NCTC 13616; assay: Broth microdilution MIC; format: cell-based; details: EMR Staphylococcus aureus 15 NCTC 13616
[9] = system: EMR Staphylococcus aureus 16 NCTC 13277; assay: Broth microdilution MIC; format: cell-based; details: EMR Staphylococcus aureus 16 NCTC 13277
[10] = system: VS Enterococcus faecalis NCTC 775; assay: Broth microdilution MIC; format: cell-based
[11] = system: VR Enterococcus faecalis NCTC 12201; assay: Broth microdilution MIC; format: cell-based; details: VR Enterococcus faecalis NCTC 12201
[12] = system: VR Enterococcus faecium NCTC 12204; assay: Broth microdilution MIC; format: cell-based; details: VR Enterococcus faecium NCTC 12204
HEK293 = assay: In vitro toxicity for cell line; format: cell-based, human; details: HEK293; average ± standard error from 3 independent repeats
Description: (§1) TABLE 2 Toxicity of bolaamphiphiles for two cell lines^a | column: Toxicity (EC50 [μg/ml]) of: / 12-bis-THA Cl2; Toxicity (EC50 [μg/ml]) of: / Dequalinium; Toxicity (EC50 [μg/ml]) of: / Quino-bola; Toxicity (EC50 [μg/ml]) of: / Penta-bola; Toxicity (EC50 [μg/ml]) of: / Hepta-bola; Toxicity (EC50 [μg/ml]) of: / Octa-bola; Toxicity (EC50 [μg/ml]) of: / Octa-C10; Toxicity (EC50 [μg/ml]) of: / Octa-C8; Toxicity (EC50 [μg/ml]) of: / Octa-C6

HeLa = assay: In vitro toxicity for cell line; format: cell-based, human; details: average ± standard error from 3 independent repeats
Description: as §1

P. aeruginosa PAO1 [13] = assay: Checkerboard synergy assay; format: cell-based, Pseudomonas aeruginosa
[14] = system: pBR322 plasmid, wheat germ topoisomerase I; assay: DNA unwinding assay; format: biochemical
Protocol: A DNA unwinding assay kit (Inspiralis Limited, Norwich, UK) consists of wheat germ topoisomerase I assay buffer (50 mM Tris HCl [pH 7.9], 1 mM EDTA, 1 mM dithiothreitol [DTT], 20% [vol/vol] glycerol, 50 mM NaCl) dilution buffer (50 mM Tris HCl [pH 7.9], 1 mM EDTA, 1 mM DTT, 50% [vol/vol] glycerol, 500 mM NaCl), wheat germ topoisomerase I (5 U/μL), supercoiled plasmid pBR322 (1 μg/μL), and relaxed plasmid pBR322 (1 μg/μL). For the experiments, 2× DNA loading buffer containing 40% (wt/vol) sucrose, 100 mM Tris-HCl (pH 8), 1 mM EDTA, and 0.5 mg/mL bromophenol blue was prepared. The enzyme was diluted 1/5 with dilution buffer before being used in the assay. For the assay, 3 mM stock solutions in methanol of the compounds to be tested were prepared. An appropriate number of 1.5-mL Eppendorf tubes were filled with 25 μL of a mix consisting of assay buffer (15 μL of buffer per sample), supercoiled or relaxed pBR322 (0.5 μg/assay), and ultrapure water. In the first two tubes, 1 μL of methanol was added to test the effect of the solvent on both the plasmid and the enzyme. Subsequently, 1 μL of the test compounds was added to the remaining tubes, and the tubes briefly vortexed and incubated at room temperature for 5 min. After that, 2 μL of dilution buffer was added in the first tube, whereas 2 μL of enzyme diluted solution was added to the remaining tubes. The tubes were gently vortexed and incubated for 30 min at 37°C in a water bath. After this time, the reaction was stopped by adding 20 μL of water and 50 μL of water-saturated butanol to each tube. The tubes were vortexed and centrifuged for 1 min at 14,800 rpm. The lower aqueous layer of each tube was removed and transferred to a new tube containing 30 μL of chloroform-isoamyl alcohol (24/1) and 50 μL of loading buffer. The tubes were briefly vortexed and centrifuged for 1 min. Twenty microliters of the upper layer of each tube was loaded onto a 1% (wt/vol) agarose gel, and the gel was run at 80 V for approximately 4 h in Tris-acetate-EDTA buffer (40 mM Tris acetate and 1 mM EDTA). Subsequently, the gel was stained with ethidium bromide (1 μg/mL) for 15 min, briefly destained (5 to 10 min) in water, and visualized with a Multi-Doc Imaging M-26X UVP transilluminator.

[15] = system: Escherichia coli ATCC 25922; assay: Intrahemocoelic G. mellonella infection model; format: in vivo, Galleria mellonella; details: single 10-mg/kg dose 1 h after infection
Protocol: The antimicrobial activities of DQC, CM2, and its analogues Quino-bola, Penta-bola, Hepta-bola, and Octa-bola against Escherichia coli ATCC 25922 were tested in Galleria mellonella larvae. All assays were performed on two separate occasions using a group size of 10 larvae; the larvae were kept in separate petri dishes and in a static incubator at 37°C during the period of the experiment. A suspension of E. coli ATCC 25922 was prepared by transferring two colonies of E. coli ATCC 25922 from a fresh agar plate into PBS and adjusting the absorbance to a McFarland 0.5 standard. The number of CFU per milliliter of this suspension was determined and corresponded to 1 × 10^8 CFU/mL. Larvae were injected beneath the tegument with 10 μL of a 1 × 10^7-CFU/mL bacteria suspension, corresponding to 1 × 10^5 CFU per larva. A 50-μL Hamilton syringe with a G27 needle was used for the injection. […] Ten microliters of stock solution was injected into each larva 1 h after infection (10 mg/kg). Levofloxacin (LVX; 50 μg/mL = 2 mg/kg) and PBS were used as positive and negative controls, respectively. A noninfected PBS injection was included to control for the effects of injection. Survival was monitored over a period of 70 to 72 h. Changes in G. mellonella survival were analyzed by the log rank (Mantel-Cox) method and plotted as Kaplan-Meier survival curves using GraphPad Prism version 7.

M. tuberculosis Bleupan = format: in vivo, Galleria mellonella; details: in vivo
[16] = in the presence of 0.25× MIC Octa-bola (Table S1)
[17] = in the presence of 0.25× MIC Octa-C10 (Table S1)
[18] = Lodderomyces parapsilosis, read-out: MIC

Compound: CC1(C)S[C@@H]2[C@H](NC(=O)[C@H](N)c3ccccc3)C(=O)N2[C@H]1C(=O)O [Ampicillin]
- MIC of antibiotic (P. aeruginosa PAO1 [1]; No bola (Table S1)): > 512 µg/mL
- MIC of antibiotic (P. aeruginosa PAO1 [1]; [16]): > 512 µg/mL
- MIC of antibiotic (P. aeruginosa NCTC 13437; No bola (Table S1)): > 512 µg/mL
- MIC of antibiotic (P. aeruginosa NCTC 13437; [17]): > 512 µg/mL
- MIC of antibiotic (P. aeruginosa NCTC 13437; [16]): > 512 µg/mL

Compound: CC(C)(O/N=C(\C(=O)N[C@@H]1C(=O)N2C(C(=O)[O-])=C(C[n+]3ccccc3)CS[C@H]12)c1csc(N)n1)C(=O)O [Ceftazidime]
- MIC of antibiotic (P. aeruginosa PAO1 [1]; No bola (Table S1)): 2 µg/mL
- MIC of antibiotic (P. aeruginosa PAO1 [1]; [16]): 2 µg/mL
- MIC of antibiotic (P. aeruginosa NCTC 13437; No bola (Table S1)): > 128 µg/mL
- MIC of antibiotic (P. aeruginosa NCTC 13437; [17]): > 128 µg/mL
- MIC of antibiotic (P. aeruginosa NCTC 13437; [16]): > 128 µg/mL

Compound: O=C(O)c1cn(C2CC2)c2cc(N3CCNCC3)c(F)cc2c1=O [Ciprofloxacin]
- MIC of antibiotic (P. aeruginosa PAO1 [1]; No bola (Table S1)): 0.125 µg/mL
- MIC of antibiotic (P. aeruginosa PAO1 [1]; [17]): 1 µg/mL
- MIC of antibiotic (P. aeruginosa PAO1 [1]; [16]): 1 µg/mL
- MIC of antibiotic (P. aeruginosa NCTC 13437; No bola (Table S1)): 32 µg/mL
- MIC of antibiotic (P. aeruginosa NCTC 13437; [17]): > 64 µg/mL
- MIC of antibiotic (P. aeruginosa NCTC 13437; [16]): > 64 µg/mL

Compound: C[C@H]1c2cccc(O)c2C(=O)C2=C(O)[C@]3(O)C(=O)C(C(N)=O)=C(O)[C@@H](N(C)C)[C@@H]3[C@@H](O)[C@@H]21 [Doxycyline]
- MIC of antibiotic (P. aeruginosa PAO1 [1]; No bola (Table S1)): 32 µg/mL
- MIC of antibiotic (P. aeruginosa PAO1 [1]; [17]): 64 µg/mL
- MIC of antibiotic (P. aeruginosa PAO1 [1]; [16]): 128 µg/mL
- MIC of antibiotic (P. aeruginosa NCTC 13437; No bola (Table S1)): > 256 µg/mL
- MIC of antibiotic (P. aeruginosa NCTC 13437; [17]): > 256 µg/mL
- MIC of antibiotic (P. aeruginosa NCTC 13437; [16]): > 256 µg/mL

Compound: OC(Cn1cncn1)(Cn1cncn1)c1ccc(F)cc1F [Fluconazole, reference compound]
- MIC (C. albicans 3179; Candida albicans, 3179): > 128 µg/mL
- MIC (C. albicans 3281; Candida albicans, 3281): > 128 µg/mL
- MIC (C. auris temp probe; Candidozyma auris): > 128 µg/mL
- MIC (C. glabrata 8018; Nakaseomyces glabratus, 8018): > 128 µg/mL
- MIC (C. tropicalis 8760; Candida tropicalis, 8760): > 128 µg/mL
- MIC (C. krusei 3876; Pichia kudriavzevii, read-out: MIC): 32 µg/mL (≈ 104 µM)
- MIC (C. parapsilosis 3209; [18]): 0.25 µg/mL (≈ 0.816 µM)
- MIC (C. parapsilosis; [18]): 0.5 µg/mL (≈ 1.63 µM)

Compound: Nc1c2c([n+](CCCCCCCCCCCC[n+]3c4c(c(N)c5ccccc53)CCCCC4)c3ccccc13)CCCCC2 [Hepta-bola]
- MIC [2]: 32 µg/mL
- MIC (Klebsiella pneumoniae M6): 16 µg/mL
- MIC [3]: 16 µg/mL
- MIC [4]: 16 µg/mL
- MIC [5]: 32 µg/mL
- MIC [6]: 32 µg/mL
- MIC [7]: 2 µg/mL
- MIC [8]: 0.25 µg/mL
- MIC [9]: 0.25 µg/mL
- MIC [10]: 1 µg/mL
- MIC [11]: 0.5 µg/mL
- MIC [12]: 0.5 µg/mL
- MIC (C. albicans 3179; C. albicans 3179): 0.5 µg/mL
- MIC (C. albicans 3281; C. albicans 3281): 0.5 µg/mL
- MIC (C. auris temp probe; C. auris temp probe): 2 µg/mL
- MIC (C. glabrata 8018; C. glabrata 8018): 0.25 µg/mL
- MIC (C. tropicalis 8760; C. tropicalis 8760): 0.25 µg/mL
- MIC (C. krusei 3876): 0.5 µg/mL
- MIC (C. parapsilosis 3209): 1 µg/mL
- MIC (C. parapsilosis): 2 µg/mL
- Toxicity (EC50) (HEK293): 3.5 ± 1.2 µg/mL
- Toxicity (EC50) (HeLa): 4.5 ± 0.7 µg/mL
- MIC alone Bolalipid (P. aeruginosa PAO1 [13]): 32 µg/mL
- DNA intercalation ([14]; relaxed pBR322 plasmid plus topoisomerase I (Fig. 2A)): to a slightly lesser extent, Hepta-bola are intercalators
- relaxation of supercoiled plasmid through the action of topoisomerase I ([14]; supercoiled pBR322 plasmid, bolalipid present (Fig. 2B)): not observed
- protection (survival over 72 h) [15]: significantly protective

Compound: C[C@@H](O)[C@H]1C(=O)N2C(C(=O)O)=C(S[C@@H]3CN[C@H](C(=O)N(C)C)C3)[C@H](C)[C@H]12 [Meropenem]
- MIC of antibiotic (P. aeruginosa PAO1 [1]; No bola (Table S1)): > 2 µg/mL
- MIC of antibiotic (P. aeruginosa PAO1 [1]; [16]): > 2 µg/mL
- MIC of antibiotic (P. aeruginosa NCTC 13437; No bola (Table S1)): > 32 µg/mL
- MIC of antibiotic (P. aeruginosa NCTC 13437; [17]): > 32 µg/mL
- MIC of antibiotic (P. aeruginosa NCTC 13437; [16]): > 32 µg/mL

Compound: CO[C@H]1/C=C/O[C@@]2(C)Oc3c(C)c(O)c4c(O)c(c(/C=N/N5CCN(C)CC5)c(O)c4c3C2=O)NC(=O)/C(C)=C\C=C\[C@H](C)[C@H](O)[C@@H](C)[C@@H](O)[C@@H](C)[C@H](OC(C)=O)[C@@H]1C [Rifampin]
- MIC of antibiotic (P. aeruginosa PAO1 [1]; No bola (Table S1)): 16 µg/mL
- MIC of antibiotic (P. aeruginosa PAO1 [1]; [17]): 8 to 16 µg/mL
- MIC of antibiotic (P. aeruginosa PAO1 [1]; [16]): 16 µg/mL
- MIC of antibiotic (P. aeruginosa NCTC 13437; No bola (Table S1)): 16 µg/mL
- MIC of antibiotic (P. aeruginosa NCTC 13437; [17]): 8 µg/mL
- MIC of antibiotic (P. aeruginosa NCTC 13437; [16]): 16 µg/mL
- larvae rescued (M. tuberculosis Bleupan): All G. mellonella larvae were rescued
